Drawing on patent publication US20120101137A1, “NOVEL THIOPHENECARBOXAMIDE DERIVATIVE AND PHARMACEUTICAL USE THEREOF” (SANWA KAGAKU KENKYUSHO CO., LTD., priority 2009, published 2012), this text covers activation for nine compounds.

Structures can show the parent of a compound that is named as a salt.

In the first test the target is T1, human glucokinase (Homo sapiens, UniProt P35557).
T1 construct: made in house; host or cells: E. coli
T1 sequence (P35557 16-465): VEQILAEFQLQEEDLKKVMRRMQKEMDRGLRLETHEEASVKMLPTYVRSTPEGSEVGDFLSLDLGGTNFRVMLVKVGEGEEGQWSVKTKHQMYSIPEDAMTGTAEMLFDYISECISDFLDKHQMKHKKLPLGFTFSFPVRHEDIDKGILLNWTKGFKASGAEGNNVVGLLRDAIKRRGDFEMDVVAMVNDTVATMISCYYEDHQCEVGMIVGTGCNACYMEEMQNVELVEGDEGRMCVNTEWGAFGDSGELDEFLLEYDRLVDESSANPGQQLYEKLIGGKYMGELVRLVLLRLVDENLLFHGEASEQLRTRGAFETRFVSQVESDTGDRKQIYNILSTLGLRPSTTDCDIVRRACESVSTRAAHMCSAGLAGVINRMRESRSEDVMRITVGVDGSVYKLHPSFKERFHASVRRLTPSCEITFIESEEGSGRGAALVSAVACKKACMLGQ
Description: Measurement of glucokinase activity (G6PDH-coupled, absorbance at 340 nm). It is filed as biochemical. The settings on record: read-out: GK activation effect (%). The method, then:
To the EcoRI, HindIII site of a pQE-80 expression vector were introduced a DNA fragment in which the same restriction enzyme site had been added to the N-terminal deficiency (1-15 amino acids deficiency)-encoding region of a human GK. E. coli was transformed by using this plasmid to express a human glucokinase, and purification was conducted as follows.
A fungus body that had been collected from 200 ml of an E. coli culture solution was collected and suspended in 20 ml of Extraction buffer A (20 mM HEPES, pH 8.0, 1 mM MgCl2, 150 mM NaCl, 2 mM mercaptoethanol, 0.25 mg/ml lysozyme, […] sodium azide), and the suspension was stood still at room temperature for 5 minutes. 20 ml of Extraction buffer B (1.5 M NaCl, 100 mM CaCl2, 100 mM MgCl2, 0.02 mg/ml DNA catabolic enzyme 1, a protease inhibitor tablet (Complete (registered trademark) 1697498): one tablet per 20 ml of the buffer) was added therero, followed by standing still at room temperature for 5 minutes. The extract liquid was then centrifuged by 15,000 g for 30 minutes at 4° C., and the supernatant was used as an E. coli extract liquid. The E. coli extract liquid was filtered by a 0.45 μm filter and applied to an Ni-NTA agarose 2 mL bed that had been equilibrated with a buffer (20 mM HEPES pH 8.0, 0.5 M NaCl) comprising 20 mM of imidazole. The bed was washed with about 10 ml of a washing buffer and eluted stepwise with buffers (20 mM HEPES pH 8.0, 0.5 M NaCl) each comprising imidazole by from 40 to 500 mM. Each of the column fractions was analyzed by using SDS gel electrophoresis, and the fraction comprising hGK (MW: 52 KDa) was concentrated. The concentrated sample was then passed through a Sephacryl S-200HR (11/60) gel filtration column and eluted with buffer B (20 mM HEPES, pH 8.0, 1 mM MgCl2, 150 mM NaCl, 1 mM DTT). The eluted fraction was analyzed by SDS gel electrophoresis, and the fraction comprising hGK was concentrated. Finally, 50% glycerol was added to the fraction, and the fraction was stored at −20° C.
178 μl of GK assay mix (25 mM Hepes buffer (pH 7.1), 25 mM KCl, 2 mM MgCl2, 1 mM NADP, 1 mM dithiotheitol, 2 unit/mL G6PDH, 5 mM D-glucose, a suitable amount of GK) was added to a UV permeable 96-well plate. 2 μl of the test compound dissolved in DMSO was added thereto, followed by standing still at room temperature for 10 minutes, and 20 μl al of 20 mM ATP was then added thereto to start a reaction. An absorbance at 340 nm was measured by Spectra Max Plus for 5 minutes at intervals of 30 seconds at room temperature, and the compound was evaluated in the reaction at the first 3 minutes.
Consider `Cc1sc([C@@H]2C[C@@H](F)CN2C(=O)CNS(C)(=O)=O)cc1C(=O)Nc1ncc(F)s1` [Example 12, (−)-5-[(2S,4R)-4-Fluoro-1-(2-methanesulfonylaminoacetyl)pyrrolidin-2-yl]-2-methylthiophene-3-carboxylic acid (5-fluorothiazol-2-yl)amide], for which the activation at 10 µM came out at 630%. Regarding `CC(=O)N[C@@H](C)C(=O)N1C[C@H](F)C[C@H]1c1cc(C(=O)Nc2ncc(F)s2)c(C)s1` [Example 23, (−)-5-[(2S,4R)-1-((S)-2-Acetylaminopropionyl)-4-fluoropyrrolidin-2-yl]-2-methylthiophene-3-carboxylic acid (5-fluorothiazol-2-yl)amide], the activation at 10 µM stood at 641%.

Still in this test, the particulars now being: test compound at final concentration of 10 μM, 5 mM D-glucose, in comparison with a well that did not comprise the compound; read-out: GK activation effect (%).
For the compound `Cc1sc(C2CCCN2C(=O)CNC(N)=O)cc1C(=O)Nc1ncc(F)s1` (single isomer, unassigned; (-)) [Example 10, (−)-2-Methyl-5-[1-(2-ureidoacetyl)pyrrolidin-2-yl]thiophene-3-carboxylic acid (5-fluorothiazol-2-yl)amide], the activation at 10 µM was found to be 600%. As for `Cc1sc(C2CCCN2C(=O)[C@H](C)NC(N)=O)cc1C(=O)Nc1ncc(F)s1` (single isomer, unassigned; (-)) [Example 22], the activation at 10 µM stood at 613%. Regarding `Cc1sc([C@@H]2C[C@@H](F)CN2C(=O)CN(C)CC(=O)O)cc1C(=O)Nc1ncc(F)s1` [Example 38, [(2-{(2S,4R)-4-Fluoro-2-[4-(5-fluorothiazol-2-ylcarbamoyl)-5-methylthiophen-2-yl]pyrrolidin-1-yl}-2-oxoethyl)methylamino]acetic acid hydrochloride], the activation at 10 µM was 801%. `Cc1sc(C2CCCN2C(=O)CN(C)CCCCC(=O)O)cc1C(=O)Nc1ncc(F)s1` (stereo not drawn) [Example 78, 5-[(2-{2-[4-(5-Fluorothiazol-2-ylcarbamoyl)-5-methylthiophen-2-yl}pyrrolidin-1-yl]-2-oxoethyl)methylamino]pentanoic acid hydrochloride]: the activation at 10 µM came to 695%.

Turning to `Cc1sc(C2CCCN2C(=O)CN(C)CCCCC(=O)O)cc1C(=O)Nc1ncc(Cl)s1` (stereo not drawn) [Example 79, 5-[(2-{2-[4-(5-Chlorothiazol-2-ylcarbamoyl)-5-methylthiophen-2-yl]pyrrolidin-1-yl}-2-oxoethyl)methylamino]pentanoic acid hydrochloride], the activation at 10 µM is 717%. Still for that read-out and setting: with `CCCCCN(CC(=O)O)CC(=O)N1C[C@H](F)C[C@H]1c1cc(C(=O)Nc2ncc(F)s2)c(C)s1` [Example 80, [(2-[(2S,4R)-4-Fluoro-2-[4-(5-fluorothiazol-2-ylcarbamoyl)-5-methylthiophen-2-yl]pyrrolidin-1-yl]-2-oxoethyl)pentylamino]acetic acid] the figure was 752%; with `CCCCCN(CC(=O)O)CC(=O)N1CCCC1c1cc(C(=O)Nc2ncc(F)s2)c(C)s1` (stereo not drawn) [Example 81, [(2-[2-[4-(5-Fluorothiazol-2-ylcarbamoyl)-5-methylthiophen-2-yl]pyrrolidin-1-yl]-2-oxoethyl)pentylamino]acetic acid], 787%.
